Data taken from ChEMBL document CHEMBL1201862, “PubChem BioAssay data set” (2004).
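Step 1: Grow cells in 96-well plates. Step 2: Expose to compound for 48 hours at 5 concentrations. Step 3: Interpolate endpoints linearly; if unreached, use highest concentration. GI50: concentration for 50% inhibition of growth.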 Activity calls are given as the source filed them. Rule as the data show it: active = GI50 up to about 1.1 µM and inactive = higher.

Columns and labels:
Assay in all cases: growth of human tumour cells (NCI), 48 h
UO-31 = test system: UO-31
SN12C = test system: SN12C
IGROV-1 = test system: IGROV-1
ACHN = test system: ACHN
M14 = test system: M14
RPMI-8226 = test system: RPMI-8226
SF-268 = test system: SF-268
OVCAR-5 = test system: OVCAR-5
UACC-62 = test system: UACC-62
EKVX = test system: EKVX
OVCAR-3 = test system: OVCAR-3
SK-OV-3 = test system: SK-OV-3
HT-29 = test system: HT-29
SR = test system: SR
UACC-257 = test system: UACC-257
SK-MEL-2 = test system: SK-MEL-2
HOP-92 = test system: HOP-92

SMILES | GI50 (UO-31) | GI50 (SN12C) | GI50 (IGROV-1) | GI50 (ACHN) | GI50 (M14) | GI50 (RPMI-8226) | GI50 (SF-268) | GI50 (OVCAR-5) | GI50 (UACC-62) | GI50 (EKVX) | GI50 (OVCAR-3) | GI50 (SK-OV-3) | GI50 (HT-29) | GI50 (SR) | GI50 (UACC-257) | GI50 (SK-MEL-2) | GI50 (HOP-92)
Cc1cn(C2CC(N(O)Cc3ccccc3)C(CO)O2)c(=O)[nH]c1=O (stereo unspecified) | > 100 µM (inactive) | > 100 µM (inactive) | > 100 µM (inactive) | > 100 µM (inactive) | > 100 µM (inactive) | > 100 µM (inactive) | > 100 µM (inactive) | > 100 µM (inactive) | > 100 µM (inactive) | > 100 µM (inactive) | > 100 µM (inactive) | > 100 µM (inactive) | > 100 µM (inactive) | > 100 µM (inactive) | > 100 µM (inactive) |  | 
CCCCCCCCCC(=O)NC(Cc1ccc(O)cc1)C(=O)NCCCNCCCCNCCCNC(=O)[C@@H](N)CCCN=C(N)N (stereo partly specified) | 31.9 µM (inactive) | 60.7 µM (inactive) | 17.9 µM (inactive) | 18.9 µM (inactive) | > 100 µM (inactive) | 64.9 µM (inactive) | 82.2 µM (inactive) |  |  | 30.1 µM (inactive) | > 100 µM (inactive) | 36.6 µM (inactive) | > 100 µM (inactive) | 73.3 µM (inactive) | 44.5 µM (inactive) |  | 
NC(CSSCC(N)Cc1ccccc1)Cc1ccccc1 (stereo unspecified) | > 100 µM (inactive) | 37.9 µM (inactive) | > 100 µM (inactive) | 76.4 µM (inactive) | 26.4 µM (inactive) | 35.3 µM (inactive) | 49.4 µM (inactive) | 44.3 µM (inactive) | 23.1 µM (inactive) | 47.5 µM (inactive) | 33 µM (inactive) | 85.7 µM (inactive) | 44 µM (inactive) | 31 µM (inactive) | 47.8 µM (inactive) | 36.8 µM (inactive) | 
Cc1cc(C)nc(NS(=O)(=O)c2ccc(Nc3c4ccccc4nc4c(C(=O)NCCN(C)C)ccc(Cl)c34)cc2)n1 | 1.71 µM (inactive) | 1.45 µM (inactive) | 2.06 µM (inactive) | 2.02 µM (inactive) | 2.9 µM (inactive) |  | 1.51 µM (inactive) | 4.7 µM (inactive) | 1.74 µM (inactive) | 4.4 µM (inactive) | 7.64 µM (inactive) |  | 0.659 µM (active) | 0.259 µM (active) |  | 3.61 µM (inactive) | 
COC(=O)c1cc(=O)nc2cc3cccccc3n12 | > 100 µM (inactive) | > 100 µM (inactive) | > 100 µM (inactive) | > 100 µM (inactive) | > 100 µM (inactive) | > 100 µM (inactive) |  | > 100 µM (inactive) | > 100 µM (inactive) | > 100 µM (inactive) | > 100 µM (inactive) | > 100 µM (inactive) | > 100 µM (inactive) | > 100 µM (inactive) | > 100 µM (inactive) |  | 
COC(=O)/C(=N\Nc1nc(S)nn1N)C(C#N)c1ccc(Cl)cc1 (stereo unspecified) | > 100 µM (inactive) | > 100 µM (inactive) | > 100 µM (inactive) | > 100 µM (inactive) | > 100 µM (inactive) | > 100 µM (inactive) | > 100 µM (inactive) | > 100 µM (inactive) | > 100 µM (inactive) | > 100 µM (inactive) | > 100 µM (inactive) | > 100 µM (inactive) | > 100 µM (inactive) |  | > 100 µM (inactive) | > 100 µM (inactive) | > 100 µM (inactive)
COc1c(C)cc2c(c1O)C1C3[C@H]4SC[C@@]5(NCCC6=C5NC5C=CC=CC65)C(=O)OCC(c5c6c(c(C)c(OC(C)=O)c54)OCO6)N3[C@@H](O)C(C2)N1C (stereo partly specified) | < 0.01 µM (active) | < 0.01 µM (active) | < 0.01 µM (active) | < 0.01 µM (active) | < 0.01 µM (active) | < 0.01 µM (active) | < 0.01 µM (active) |  | < 0.01 µM (active) | 0.0297 µM (active) | < 0.01 µM (active) |  | < 0.01 µM (active) | < 0.01 µM (active) | < 0.01 µM (active) | < 0.01 µM (active) | 
